PMC6804243, “Small-Molecule Inhibition of UBE2T/FANCL-Mediated Ubiquitylation in the Fanconi Anemia Pathway” (ACS Chemical Biology, 2019)
Read-outs that look alike come from different tables or passages of the source.

Biological target: T1, UBE2T/FANCLRING (ubiquitylation of GST-FANCLRING) (Homo sapiens, UniProt Q9NW38)
T1 sequence (Q9NW38 275-375 limits assumed): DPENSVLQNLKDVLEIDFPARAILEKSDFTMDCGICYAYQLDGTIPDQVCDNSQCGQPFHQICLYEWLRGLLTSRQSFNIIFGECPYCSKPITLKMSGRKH
Assay: biochemical
Settings: for LE: ligand efficiency = 1.4(–logIC50)/HAC; for inhibition at 20 µM: read-out: Primary screen % Inhibition (20 M)
Source text: To identify small-molecule inhibitors of the FA pathway, we developed a high-throughput screen (HTS) compatible assay based on the FA ubiquitylation cascade (see Figure 1a, as well as Figure S1 in the Supporting Information). Given the complexity of the full FA ubiquitylation cascade, we constructed a simplified ubiquitylation reaction that would be robust for HTS purposes yet still provide many relevant protein species for small molecules to interact with. The recombinant protein assay developed used homogeneous time-resolved fluorescence (HTRF) and contained Cy5-labeled ubiquitin, the E1 enzyme UBE1, the E2 enzyme UBE2T, and the RING domain (residues 275–375) of the E3 FANCL (FANCLRING). FANCLRING was used as a surrogate substrate for ubiquitylation in the absence of the FA core and FANCD2/FANCI complexes.
Figure 1 Screening for inhibitors of the FA pathway. (a) Schematic of the HTRF ubiquitylation assay. Ubiquitylation of GST-tagged E3 (FANCLRING) by the E2 (UBE2T) places Cy5-labeled ubiquitin in close proximity to the anti-GST Tb cryptate. Excitation of the Tb cryptate donor results in FRET to the Cy5 acceptor. Simultaneous monitoring of the donor emission (620 nm) and acceptor emission (665 nm) allows for determination of the 665/620 ratio. (b) HTRF screen results showing average inhibition (n = 2) produced by compounds at 20 μM (in-house diversity library; 10 111 compounds) and 10 μM (Selleckchem epigenetic library; 119 compounds). Numbers given in parentheses represent the number of compounds per inhibition threshold.
Purified protein was concentrated using a Vivaspin-6 concentrator with a 10 kDa MW cut-off (Vivascience) and flash-frozen in small aliquots for storage at […]
Cy5 labelling of ubiquitin. To a 5 mg/mL solution of recombinant human ubiquitin (Boston Biochem) in 0.1 M NaHCO3 pH 8.3, was added a 4-fold molar excess of Cyanine5 NHS ester (Lumiprobe). The reaction was incubated at 23 °C for 4 hours in the dark. The protein was separated from unreacted dye by passage through a PD-10 desalting column (GE Healthcare) equilibrated with PBS. Purified protein was concentrated using a Vivaspin-6 concentrator with a 3 kDa MW cut-off (Vivascience) and flash-frozen in small aliquots for storage […]
Homogeneous Time-Resolved Fluorescence (HTRF) Assay. GST-FANCLRING (200 nM) was incubated with anti-GST Tb (CisBio, #61GSTTL) (2.5 ng final) at room temperature for 30 minutes in assay buffer (50 mM Tris-HCl pH 8.0, 1 mM TCEP, 5 mM MgCl2, 0.005% Tween-20). Meanwhile, 10 μL of UBE2T in assay buffer (or assay buffer alone for no enzyme controls) was incubated in a white 384-well plate (Corning) with 20 nL DMSO or compound in DMSO. After 30 minutes, the GST-RINGRING solution was added to an equal volume solution containing His-UBE1 (Boston Biochem) (16 nM), Cy5-ubiquitin (400 nM), ATP (0.8 mM) in assay buffer. 10 μL of this solution was immediately added to each well of the 384 -well plate containing UBE2T or buffer. F inal concentrations: His -UBE1 (4 nM), UBE2T (6 nM), GST -RINGRING (50 nM), Cy5-ubiquitin (100 nM), ATP (0.2 mM), compound (10 or 20 μM) in 0.1 %
(v/v) DMSO. After a 10 minute incubation at 23 °C, 5 µL of a 50 mM EDTA solution were added to each well to stop the reaction. Signal was measured at λEx 340 nm and λEm 665 nm and 620 nm using a PHERAstar FS plate reader
(BMG Labtech). A ratio was calculated as [λEm(665)/λEm(620)] × 104 for each well and this was used to determine the percent inhibition for test compounds.
Gel-based ubiquitylation assays. Assays were carried out in a total volume of 10 µL containing 20 nM His6-UBE1 (Boston Biochem), 50 nM UBE2T, 250 nM GST-E3 and 500 nM biotinylated ubiquitin (Boston Biochem) in buffer (50

[1] = library stock, 10-point dose-response, read-out: Primary screen IC50
[2] = printed beside the structures in Figure S3, read-out: IC50 (Figure S3)

SMILES	IC50 [1] [µM]	LE	inhibition at 20 µM (primary screen, compound at 20 μM (head prints '20 M'), n = 2) [%]	IC50 [2] [µM]	inhibition at 20 µM [%]
NC(=O)[C@@H]1CCCN1C(=O)c1cc(-n2cccc2)ccc1Cl [CU12]	11.5	0.32	107	9.9	
CCN1CCN(c2cc(C)nc3nc(CN4CCCCC4C)nn23)CC1 (stereo not shown) [CU2]	8.4	0.26		14.8	63.4
Cc1nnc(N(C)CC2CCN(CC(C)O)CC2)c(C#N)c1C (stereo not shown) [CU9]	31.4	0.26		45.4	48.2
NCCN1C(=O)CC[C@H]2CN(Cc3cccc(-c4ccco4)c3)CC[C@H]21 [CU1]	15.2	0.23		56	48.4
